Measurements as given in patent US11091478B2 (Fochon Pharmaceuticals, Ltd., priority 2017, dated 2021).

Assays:
DOHH2 cells = assay: Cell proliferation assay (MTS), DOHH2 cells, 120 h; assay type: cell-based; conditions: Homo sapiens, DOHH-2, 120 h
How it was run: (§1)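 Proliferation was scored by MTS (2 h, then SDS stop, A490 with 650 nm reference) and IC50 derived. Compound ran at nine final concentrations from 1.5 to 10000 nM. DOHH2 were incubated 120 h and RS4;11 72 h, both plated at 5000 cells/well in RPMI-1640 plus 10% FBS.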

RS4;11 cells = assay: Cell proliferation assay (MTS), RS4;11 cells, 72 h; assay type: cell-based; conditions: Homo sapiens, RS4-11, 72 h
How it was run: as §1

## C[C@@H]1CNc2c(cc(S(=O)(=O)NC(=O)c3ccc(N4CCN(CC5=C(c6ccc(Cl)cc6)CC(C)(C)CC5)CC4)cc3Oc3cnc4[nH]ccc4c3)cc2[N+](=O)[O-])O1 [Example 2-100, (R)-2-((1H-pyrrolo[2,3-b]pyridin-5-yl)oxy)-4-(4-((4′-chloro-5,5-dimethyl-3,4,5,6-tetra-hydro[1,1′-biphenyl]-2-yl)methyl)piperazin-1-yl)-N-((2-methyl-5-nitro-3,4-dihydro-2H-benzo[b][1,4]oxazin-7-yl)sulfonyl)benza-mide]
DOHH2 cells
  IC50: 31 nM
RS4;11 cells
  IC50: 22 nM

## CN(C)C(=O)[C@H]1COc2cc(S(=O)(=O)NC(=O)c3ccc(N4CCN(CC5=C(c6ccc(Cl)cc6)CC(C)(C)CC5)CC4)cc3Oc3cnc4[nH]ccc4c3)cc([N+](=O)[O-])c2N1 [Example 2-102, (R)-7-(N-(2-((1H-pyrrolo[2,3-b]pyridin-5-yl)oxy)-4-(4-((4′-chloro-5,5-dimethyl-3,4,5,6-tetrahydro-[1,1′-biphenyl]-2-yl)methyl)pi-perazin-1-yl)benzoyl)sulfamoyl)-N,N-dimethyl-5-nitro-3,4-dihydro-2H-benzo[b] [1,4]oxazine-3-carboxamide]
DOHH2 cells
  IC50: 95 nM
RS4;11 cells
  IC50: 10 nM

## CC1(C)CCC(CN2CCN(c3ccc(C(=O)NS(=O)(=O)c4cc5c(c([N+](=O)[O-])c4)N[C@@H](C(=O)N4CCOCC4)CO5)c(Oc4cnc5[nH]ccc5c4)c3)CC2)=C(c2ccc(Cl)cc2)C1 [Example 2-103]
DOHH2 cells
  IC50: 490 nM
RS4;11 cells
  IC50: 16 nM

## CN1CCN(C(=O)[C@H]2COc3cc(S(=O)(=O)NC(=O)c4ccc(N5CCN(CC6=C(c7ccc(Cl)cc7)CC(C)(C)CC6)CC5)cc4Oc4cnc5[nH]ccc5c4)cc([N+](=O)[O-])c3N2)CC1 [Example 2-104, (R)-2-((1H-pyrrolo[2,3-b]pyridin-5-yl)oxy)-4-(4-((4′-chloro-5,5-dimethyl-3,4,5,6-tetra-hydro[1,1′-biphenyl]-2-yl)methyl)piperazin-1-yl)-N-((3-(4-methylpiperazine-1-carbo-nyl)-5-nitro-3,4-dihydro-2H-benzo[b][1,4]oxazin-7-yl)sulfonyl)benzamide]
DOHH2 cells
  IC50: 173 nM
RS4;11 cells
  IC50: 7 nM

## C[C@H]1CNc2c(cc(S(=O)(=O)NC(=O)c3ccc(N4CCN(CC5=C(c6ccc(Cl)cc6)CC(C)(C)CC5)CC4)cc3Oc3cnc4[nH]ccc4c3)cc2[N+](=O)[O-])O1 [Example 2-105, (S)-2-((1H-pyrrolo[2,3-b]pyridin-5-yl)oxy)-4-(4-((4′-chloro-5,5-dimethyl-3,4,5,6-tetra-hydro-[1,1′-biphenyl]-2-yl)methyl)piperazin-1-yl)-N-((2-methyl-5-nitro-3,4-dihydro-2H-benzo[b][1,4]oxazin-7-yl)sulfonyl)benza-mide]
DOHH2 cells
  IC50: 51 nM
RS4;11 cells
  IC50: 35 nM

## C[C@@H]1COc2cc(S(=O)(=O)NC(=O)c3ccc(N4CCN(CC5=C(c6ccc(Cl)cc6)CC(C)(C)CC5)CC4)cc3Oc3cnc4[nH]ccc4c3)cc([N+](=O)[O-])c2N1 [Example 2-106, (R)-2-((1H-pyrrolo[2,3-b]pyridin-5-yl)oxy)-4-(4-((4′-chloro-5,5-dimethyl-3,4,5,6-tetra-hydro-[1,1′-bipehnyl]-2-yl)methyl)piperazin-1-yl)-N-((3-methyl-5-nitro-3,4-dihydro-2H-benzo[b][1,4]oxazin-7-yl)sulfonyl)benza-mide]
DOHH2 cells
  IC50: 19 nM
RS4;11 cells
  IC50: 9 nM

## CC[C@@H]1COc2cc(S(=O)(=O)NC(=O)c3ccc(N4CCN(CC5=C(c6ccc(Cl)cc6)CC(C)(C)CC5)CC4)cc3Oc3cnc4[nH]ccc4c3)cc([N+](=O)[O-])c2N1 [Example 2-107]
DOHH2 cells
  IC50: 22 nM
RS4;11 cells
  IC50: 8 nM

## CC(C)[C@@H]1COc2cc(S(=O)(=O)NC(=O)c3ccc(N4CCN(CC5=C(c6ccc(Cl)cc6)CC(C)(C)CC5)CC4)cc3Oc3cnc4[nH]ccc4c3)cc([N+](=O)[O-])c2N1 [Example 2-108, (R)-2-((1H-pyrrolo[2,3-b]pyridin-5-yl)oxy)-4-(4-((4′-chloro-5,5-dimethyl-3,4,5,6-tetra-hydro-[1,1′-biphenyl]-2-yl)methyl)piperazin-1-yl)-N-((3-isopropyl-5-nitro-3,4-dihydro-2H-benzo[b][1,4]oxazin-7-yl)sulfonyl) benzamide]
DOHH2 cells
  IC50: 51 nM
RS4;11 cells
  IC50: 16 nM

## CC1(C)CCC(CN2CCN(c3ccc(C(=O)NS(=O)(=O)c4cc5c(c([N+](=O)[O-])c4)N[C@H](C4CC4)CO5)c(Oc4cnc5[nH]ccc5c4)c3)CC2)=C(c2ccc(Cl)cc2)C1 [Example 2-109, (R)-2-((1H-pyrrolo[2,3-b]pyridin-5-yl)oxy)-4-(4-((4′-chloro-5,5-dimethyl-3,4,5,6-tetra-hydro[1,1′-biphenyl]-2-yl)methyl)piperazin-1-yl)-N-((3-cyclopropyl-5-nitro-3,4-dihy-dro-2H-benzo[b][14,]oxazin-7-yl)sulfonyl) benzamide]
DOHH2 cells
  IC50: 56 nM
RS4;11 cells
  IC50: 11 nM

## COC[C@@H]1COc2cc(S(=O)(=O)NC(=O)c3ccc(N4CCN(CC5=C(c6ccc(Cl)cc6)CC(C)(C)CC5)CC4)cc3Oc3cnc4[nH]ccc4c3)cc([N+](=O)[O-])c2N1 [Example 2-110, (R)-2-((1H-pyrrolo[2,3-b]pyridin-5-yl)oxy)-4-(4-((4′-chloro-5,5-dimethyl-3,4,5,6-tetra-hydro-[1,1′-biphenyl]-2-yl)methyl)piperazin-1-yl)-N-((3-(methoxymethyl)-5-nitro-3,4-dihydro-2H-benzo[b][1,4]oxazin-7-yl)sulfo-nyl)benzamide]
DOHH2 cells
  IC50: 96 nM
RS4;11 cells
  IC50: 2 nM

## C[C@H]1COc2cc(S(=O)(=O)NC(=O)c3ccc(N4CCN(CC5=C(c6ccc(Cl)cc6)CC(C)(C)CC5)CC4)cc3Oc3cnc4[nH]ccc4c3)cc([N+](=O)[O-])c2N1 [Example 2-111, (S)-2-((1H-pyrrolo[2,3-b]pyridin-5-yl)oxy)-4-(4-((4′-chloro-5,5-dimethyl-3,4,5,6-tetra-hydro-[1,1′-biphenyl]-2-yl)methyl)piperazin-1-yl)-N-((3-methyl-5-nitro-3,4-dihydro-2H-benzo[b][1,4]oxazin-7-yl)sulfonyl)benza-mide]
DOHH2 cells
  IC50: 26 nM
RS4;11 cells
  IC50: 28 nM

## CC[C@H]1COc2cc(S(=O)(=O)NC(=O)c3ccc(N4CCN(CC5=C(c6ccc(Cl)cc6)CC(C)(C)CC5)CC4)cc3Oc3cnc4[nH]ccc4c3)cc([N+](=O)[O-])c2N1 [Example 2-112]
DOHH2 cells
  IC50: 15 nM
RS4;11 cells
  IC50: 11 nM

## CC(C)[C@H]1COc2cc(S(=O)(=O)NC(=O)c3ccc(N4CCN(CC5=C(c6ccc(Cl)cc6)CC(C)(C)CC5)CC4)cc3Oc3cnc4[nH]ccc4c3)cc([N+](=O)[O-])c2N1 [Example 2-113, (S)-2-((1H-pyrrolo[2,3-b]pyridin-5-yl)oxy)-4-(4-((4′-chloro-5,5-dimethyl-3,4,5,6-tetra-hydro-[1,1′-biphenyl]-2-yl)methyl)piperazin-1-yl)-N-((3-isopropyl-5-nitro-3,4-dihydro-2H-benzo[b][1,4]oxazin-7-yl)sulfonyl) benzamide]
DOHH2 cells
  IC50: 20 nM
RS4;11 cells
  IC50: 6 nM

## CC1(C)CCC(CN2CCN(c3ccc(C(=O)NS(=O)(=O)c4cc5c(c([N+](=O)[O-])c4)N[C@@H](C4CC4)CO5)c(Oc4cnc5[nH]ccc5c4)c3)CC2)=C(c2ccc(Cl)cc2)C1 [Example 2-114, (S)-2-((1H-pyrrolo[2,3-b]pyridin-5-yl)oxy)-4-(4-((4′-chloro-5,5-dimethyl-3,4,5,6-tetra-hydro-[1,1′-biphenyl]-2-yl)methyl)piperazin-1-yl)-N-((3-cyclopropyl-5-nitro-3,4-di-hydro-2H-benzo[b][1,4]oxazin-7-yl)sulfonyl)benzamide]
DOHH2 cells
  IC50: 48 nM
RS4;11 cells
  IC50: 1 nM
